Laboratory results from publication PMC5554537 (Frontiers in Pharmacology, 2017).

Experiment: Reductive metabolism in liver S9 preparations
Format: in vitro ADME, NIH-III mice
Conditions: for Rate of reduction to M14: 20 μg/ml protein
Protocol: In vitro hepatic metabolism of SN30000 and M14 was studied using 9,000 g post-mitochondrial supernatants (S9) prepared from livers of female NIH-III mice. Metabolism at 37°C was measured by dilution of S9 to appropriate protein concentrations (measured by BCA protein assay) in sodium/potassium phosphate buffer (67 mM phosphate, pH 7.4) containing 5 mM MgCl2, 1 mM EDTA, 1 mM NADPH, 1 mM NADH and 150 μM test drug. The reaction was terminated by adding an equal volume of ice-cold MeOH and samples were analyzed by LC-MS/MS. Two methods were used to modify the oxygen concentration. Method 1: 96-well plates (reaction volume 0.1 mL/well) were incubated for 30 min on a Eppendorf Thermomixer C (Eppendorf AG, Hamburg, Germany) either under 21% O2 (oxia) or 95% N2/5% CO2 (anoxia) in an anaerobic chamber (Sheldon Manufacturing, Cornelius, OR, United States) as described previously ([Gu et al., 2010]). Method 2: glass vials containing 3 mL final volume were magnetically stirred continuously in a water bath under flowing 5% CO2 containing 0, 0.2, 2, or 20% O2 (certified gas mixtures from BOC Gasses NZ), as detailed previously ([Hicks et al., 2007]), and samples (0.1 mL) were withdrawn at intervals for analysis.
To address whether this reflects an oxygen-sensitive (one-electron reduction) or oxygen-insensitive (two-electron reduction) process, metabolism was compared in NIH-III mouse liver S9 preparations under 20% O2 or anoxia. […] Using low protein concentrations (20 μg/ml) to enable assessment of initial rates, reduction to M14 was similar for anoxic liver S9 preparations from male and female NIH-III mice (10.6 ± 0.2 and 9.2 ± 0.2 nmol/min/mg protein, respectively). […] The liver S9 intrinsic clearance, CLint, was calculated as Vmax/Km for M14 formation under anoxia and scaled to the whole liver based on the (unrealistic) assumption that the liver is entirely anoxic. This upper estimate of in vivo hepatic clearance was then predicted as previously described ([Gu et al., 2011b]) using the free fraction of SN30000 in mouse plasma determined by equilibrium dialysis (Supplementary Table 11).

For `[O-][n+]1nc(CCCN2CCOCC2)[n+]([O-])c2cc3c(cc21)CCC3` [SN30000, 3-(3-Morpholinopropyl)-7,8-dihydro-6H-indeno[5,6-e][1,2,4]triazine 1,4-dioxide], the “Rate of reduction to M14” value (anoxic liver S9 from female mice) was 9.2 ± 0.2 nmol/min/mg protein, the “Rate of reduction to M14” value (anoxic liver S9 from male mice) was 10.6 ± 0.2 nmol/min/mg protein and the “Vmax for formation of M14” value (anoxic mouse liver S9) was 71 ± 2 nmol/min/mg protein. It also gave a Predicted hepatic clearance (dispersion model) of 78.2 mL/min/kg, a Km (female, NIH-III, liver S9 (9,000 g post-mitochondrial supernatant), pH 7.4, anoxic mouse liver S9, read-out: Apparent Km for formation of M14) of 974 ± 71 µM and a Predicted hepatic clearance (parallel tube model) of 83.5 mL/min/kg. It also gave a Predicted hepatic clearance (well-stirred model, from anoxic S9 CLint, liver assumed entirely anoxic) of 65.2 mL/min/kg.
